Test results from patent US20250092065A1, “2-(INDAZOL-5-YL)-6-(PIPERIDIN-4-YL)-1,7-NAPHTHYRIDINE DERIVATIVES AND RELATED COMPOUNDS AS MODULATORS FOR SPLICING NUCLEIC ACIDS AND FOR THE TREATMENT OF PROLIFERATIVE DISEASES” (REMIX THERAPEUTICS INC., priority 2022, published 2025).
Read-outs that look alike come from different tables or passages of the source.

Columns and labels:
[1] = tested on: HTT mRNA; test: RT-qPCR splicing assay, HTT mRNA canonical (CJ) and alternative (AJ) junction; assay type: cell-based, human; details: Homo sapiens; for AC50: HTT alternative junction mRNA, read-out: HTT AJ (increase in AJ mRNA, AC50)
Outline: (§1)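 A673 or K562 cells treated 24 h at 37 °C with 11-point 3-fold dilutions (top final 10 uM, DMSO ≤0.25%). Lysates analysed by one-step RT-qPCR for canonical (CJ) and alternative-exon (AJ) junctions, normalized to GAPDH, GUSB or PPIA. ΔΔCt vs DMSO, RQ = 2^(−ΔΔCt), expressed as percentage response.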

[2] = tested on: SMN2 mRNA; test: RT-qPCR splicing assay, SMN2 mRNA; assay type: cell-based, human; details: Homo sapiens, canonical junction qPCR panel, Table 4; read-out: SMN2 IC50 (decrease in CJ mRNA levels)
Outline: as §1

[3] = tested on: MYB mRNA; test: RT-qPCR splicing assay, MYB mRNA canonical (CJ) and alternative (AJ) junction; assay type: cell-based, human; details: Homo sapiens; for AC50: MYB alternative junction mRNA, read-out: MYB AJ (increase in AJ mRNA, AC50)
Outline: as §1

[4] = tested on: HTT; test: HiBiT protein abundance assay, HTT (K562 HiBiT knock-in); assay type: cell-based, human; details: HiBiT knock-in K562 cells, 24 hours, top dose 10 μM
Outline: (§2)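 Endogenously HiBiT-tagged K562 lines were treated for 24 h at 37 °C with 10-point 3-fold dilutions (top 10 μM final, DMSO ≤0.25%). Lytic LgBiT complementation luminescence was normalized between unmodified K562 (PC) and DMSO-treated tagged cells (NC); IC50 was interpolated at 50% from a four-parameter logistic fit.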

[5] = tested on: MYB; test: HiBiT protein abundance assay, MYB (K562 HiBiT knock-in); assay type: cell-based, human; details: HiBiT knock-in K562 cells, 24 hours, top dose 10 μM
Outline: as §2

[6] = tested on: K562 cells; test: Cell Titer Glo 2.0 cell viability (toxicity) assay, K562; details: 500 cells/well, 72 hours
[7] = tested on: Target C; test: HiBiT protein abundance assay, Target C (K562 HiBiT knock-in); assay type: cell-based, human; details: HiBiT knock-in K562 cells, 24 hours, top dose 10 μM
Outline: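 K562 HiBiT knock-in cells (10000/well) were treated 24 h at 37° C with a 10-point 3-fold dilution series (top 10 μM final, ≤0.25% DMSO). HiBiT luminescence was read after lytic LgBiT detection. Percent response used unmodified K562 and DMSO-treated knock-in controls, and IC50 came from a four-parameter fit at 50% of untreated.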

[8] = HTT canonical junction mRNA, RT-qPCR, read-out: HTT CJ (decrease in CJ mRNA levels, IC50)
[9] = canonical junction qPCR panel, Table 4, read-out: HTT IC50 (decrease in CJ mRNA levels)
[10] = MYB canonical junction mRNA, RT-qPCR, read-out: MYB CJ (decrease in CJ mRNA levels, IC50)
[11] = canonical junction qPCR panel, Table 4, read-out: MYB IC50 (decrease in CJ mRNA levels)

## Cn1cc2cc(-c3ccc4nc(N5CCC(NC(C)(C)C)C5)ccc4n3)c(O)c(F)c2n1 (stereo not drawn) [Compound 202]
[1]; RT-qPCR
  AC50: < 0.1 µM
[1]; [8]
  IC50: < 0.1 µM
[1]; [9]
  IC50: < 0.1 µM
[2]
  IC50: < 0.1 µM
[3]; RT-qPCR
  AC50: < 0.1 µM
[3]; [10]
  IC50: < 0.1 µM
[3]; [11]
  IC50: < 0.1 µM
[4]
  IC50: < 0.1 µM
[5]
  IC50: < 0.1 µM
[6]
  Effect of Exemplary Compounds on Cell Viability, K562: A (A represents <100 nM)
[7]
  IC50: < 0.1 µM

## Cc1cn2nc(-c3ccc4nc(N5CCC(NC(C)(C)C)C5)ccc4n3)c(O)c2c(C)n1 (stereo not drawn) [Compound 203]
[1]; RT-qPCR
  AC50: < 0.1 µM
[1]; [8]
  IC50: < 0.1 µM
[1]; [9]
  IC50: < 0.1 µM
[2]
  IC50: < 0.1 µM
[3]; RT-qPCR
  AC50: 0.1 to 1 µM
[3]; [10]
  IC50: 0.1 to 1 µM
[3]; [11]
  IC50: 0.1 to 1 µM
[4]
  IC50: < 0.1 µM
[5]
  IC50: < 0.1 µM
[6]
  Effect of Exemplary Compounds on Cell Viability, K562: B (B represents 100-1000 nM)
[7]
  IC50: < 0.1 µM

## Cn1cc2cc(-c3ccc4nc(C5CCNCC5)ccc4n3)c(C#N)cc2n1 [Compound 204]
[1]; RT-qPCR
  AC50: 1 to 10 µM
[1]; [8]
  IC50: 1 to 10 µM
[1]; [9]
  IC50: 1 to 10 µM
[2]
  IC50: 0.1 to 1 µM
[3]; RT-qPCR
  AC50: 1 to 10 µM
[3]; [10]
  IC50: 1 to 10 µM
[3]; [11]
  IC50: 1 to 10 µM
[4]
  IC50: 1 to 10 µM
[5]
  IC50: 1 to 10 µM
[6]
  Effect of Exemplary Compounds on Cell Viability, K562: D (D represents greater than 10 μM in K562 cells)
[7]
  IC50: 1 to 10 µM

## Cn1cc2nc(-c3ccc4nc(C5CCNCC5)ccc4n3)c(F)cc2n1 [Compound 205]
[1]; RT-qPCR
  AC50: 1 to 10 µM
[1]; [8]
  IC50: 1 to 10 µM
[1]; [9]
  IC50: 1 to 10 µM
[2]
  IC50: 1 to 10 µM
[3]; RT-qPCR
  AC50: 1 to 10 µM
[3]; [10]
  IC50: 1 to 10 µM
[3]; [11]
  IC50: 1 to 10 µM
[4]
  IC50: 1 to 10 µM
[5]
  IC50: 1 to 10 µM
[6]
  Effect of Exemplary Compounds on Cell Viability, K562: C (C represents 1000-9999 nM)
[7]
  IC50: 1 to 10 µM

## Cc1cn2cc(-c3ccc4nc(N5CCC(NC(C)(C)C)C5)ccc4n3)nc(C)c2n1 (stereo not drawn) [Compound 206]
[1]; RT-qPCR
  AC50: 1 to 10 µM
[1]; [8]
  IC50: 1 to 10 µM
[1]; [9]
  IC50: 1 to 10 µM
[2]
  IC50: 1 to 10 µM
[3]; RT-qPCR
  AC50: 1 to 10 µM
[3]; [10]
  IC50: 1 to 10 µM
[3]; [11]
  IC50: 1 to 10 µM
[4]
  IC50: 1 to 10 µM
[5]
  IC50: 1 to 10 µM
[6]
  Effect of Exemplary Compounds on Cell Viability, K562: C (C represents 1000-9999 nM)
[7]
  IC50: 1 to 10 µM

## Cn1cc2nc(-c3ccc4nc(N5CCC(NC(C)(C)C)C5)ccc4n3)c(F)cc2n1 (stereo not drawn) [Compound 207]
[1]; RT-qPCR
  AC50: 1 to 10 µM
[1]; [8]
  IC50: 1 to 10 µM
[1]; [9]
  IC50: 1 to 10 µM
[2]
  IC50: 1 to 10 µM
[3]; RT-qPCR
  AC50: 1 to 10 µM
[3]; [10]
  IC50: 1 to 10 µM
[3]; [11]
  IC50: 1 to 10 µM
[4]
  IC50: 1 to 10 µM
[5]
  IC50: 1 to 10 µM
[6]
  Effect of Exemplary Compounds on Cell Viability, K562: C (C represents 1000-9999 nM)
[7]
  IC50: 1 to 10 µM

## Cc1nc(-c2ccc3nc(N4CCC(NC(C)(C)C)C4)ccc3n2)cc2cn(C)nc12 (stereo not drawn) [Compound 208]
[1]; RT-qPCR
  AC50: > 10 µM
[1]; [8]
  IC50: > 10 µM
[1]; [9]
  IC50: > 10 µM
[2]
  IC50: 1 to 10 µM
[3]; RT-qPCR
  AC50: 1 to 10 µM
[3]; [10]
  IC50: > 10 µM
[3]; [11]
  IC50: > 10 µM
[4]
  IC50: 1 to 10 µM
[5]
  IC50: > 10 µM
[6]
  Effect of Exemplary Compounds on Cell Viability, K562: D (D represents greater than 10 μM in K562 cells)
[7]
  IC50: > 10 µM

## Cc1nc2cc(O)c(-c3ccc4nc(N5CC[C@H](NC(C)(C)C)C5)ccc4n3)cc2o1 [Compound 209]
[1]; RT-qPCR
  AC50: < 0.1 µM
[1]; [8]
  IC50: < 0.1 µM
[1]; [9]
  IC50: < 0.1 µM
[2]
  IC50: < 0.1 µM
[3]; RT-qPCR
  AC50: < 0.1 µM
[3]; [10]
  IC50: < 0.1 µM
[3]; [11]
  IC50: < 0.1 µM
[4]
  IC50: < 0.1 µM
[5]
  IC50: 1 to 10 µM
[6]
  Effect of Exemplary Compounds on Cell Viability, K562: C (C represents 1000-9999 nM)
[7]
  IC50: < 0.1 µM

## Cc1nc2cc(O)c(-c3ccc4nc(N5CC[C@@H](NC(C)(C)C)C5)ccc4n3)cc2o1 [Compound 210]
[1]; RT-qPCR
  AC50: 1 to 10 µM
[1]; [8]
  IC50: 0.1 to 1 µM
[1]; [9]
  IC50: 0.1 to 1 µM
[2]
  IC50: < 0.1 µM
[3]; RT-qPCR
  AC50: 1 to 10 µM
[3]; [10]
  IC50: 1 to 10 µM
[3]; [11]
  IC50: 1 to 10 µM
[4]
  IC50: < 0.1 µM
[5]
  IC50: < 0.1 µM
[6]
  Effect of Exemplary Compounds on Cell Viability, K562: A (A represents <100 nM)
[7]
  IC50: < 0.1 µM
